From article PMC5479350 (Journal of virological methods, 2017) come the findings set out here.

Several values for one entry are separate records, joined by “and”; a condition that tells them apart may be missing. Identical values can stand only once. Like-named read-outs stand apart in the source and are kept apart here.

In data set [1] the test system is Chikungunya virus (S27 strain). Kind of data set: microbe, parasite or virus in culture. It counts as cell-based. Conditions: for EC50: Chikungunya virus, Vero 76, read-out: EC50 (mean 50% effective, virus-inhibitory concentration ± SD).
The subject of data set [2] is Dengue virus Type 2 (New Guinea C strain). Kind of data set: microbe, parasite or virus in culture. The settings on record: for EC50: Dengue virus, Vero 76, read-out: EC50 (mean 50% effective, virus-inhibitory concentration ± SD). It is filed as cell-based.
The subject of data set [3] is Junin virus (Candid #1 strain). It counts as cell-based.
Data set [4] concerns proliferating, uninfected Vero 76 cells.
Data set [5] is described as follows: in vitro. Conditions: African green monkey.

`O=c1cnn([C@@H]2O[C@H](CO)[C@@H](O)[C@H]2O)c(=O)[nH]1` [6-Azauridine]: in data set [1], the “Inhibition of chikungunya virus (in words)” value is “inhibited”; the “SI (Selectivity Index, CC50/EC50)” value is above 13; the EC50 was 8 ± 10.4 µM. In data set [2], the “SI (Selectivity Index, CC50/EC50)” value is on record as above 12 and the EC50 came to 8.4 ± 10.8 µM. Also, in data set [3], the “Inhibition of Junin virus (in words)” value was “inhibited” and the “SI (Selectivity Index, CC50/EC50)” value is above 151. Also, in data set [4] (4 days, N=3), the “Mean 50% cytotoxic concentration ± SD, ALB-Abs” value is 48.0 ± 11.5 µM and 48.0 ± 19.9 µM; the “Mean 50% cytotoxic concentration ± SD, ALB-Fluor” value is 69.0 ± 10.5 μM and 94.0 ± 10.4 ^*^, ^φ μM; the “Mean 50% cytotoxic concentration ± SD, Neutral Red” value is 6.2 ± 0.9 µM; the “Mean 50% cytotoxic concentration ± SD, Viral ToxGlo” value came to 17.0 ± 5.3 µM. The “Mean 50% cytotoxic concentration ± SD, WST-1” value in data set [4] (4 days, N=3) was 6.2 ± 1.0 μM and 7.1 ± 1.8 ^b μM. In addition, in data set [5] (CC50 (toxicity) with ALB-A and ALB-F), the CC50 was in the range of 48 to 92 µM. For the same compound, the CC50 in data set [5] (CC50 (toxicity) with NR, VTG, and WST-1) was in the range of 6.1 to 17.5 µM.

With `Nc1cc2nc[nH]c2c(=O)[nH]1` [3-Deazaguanine], in data set [1], the “Inhibition of chikungunya virus (in words)” value is recorded as “inhibited”; the “SI (Selectivity Index, CC50/EC50)” value was above 8; the EC50 turned out to be 13 ± 8.3 µM. In data set [2], the “SI (Selectivity Index, CC50/EC50)” value is recorded as above 22 and the EC50 was 4.6 ± 6.3 µM. In data set [3], the “Inhibition of Junin virus (in words)” value was “inhibited” and the “SI (Selectivity Index, CC50/EC50)” value is listed as above 63. In data set [4] (African green monkey), the “Mean 50% cytotoxic concentration ± SD, Neutral Red” value worked out at 3.0 ± 1.1 µM and the “Mean 50% cytotoxic concentration ± SD, Viral ToxGlo” value is 1.5 ± 0.7 µM. In data set [5] (CC50 with ALB-F), this compound registered a CC50 of 83 to 93 µM. Also, in data set [5] (CC50 with all other dyes including ALB-A), the CC50 lay in the range of 2.4 to 7 µM.

`Nc1ncnc2c([C@@H]3N[C@H](CO)[C@@H](O)[C@H]3O)c[nH]c12` [BCX4430]: the EC50 in data set [1] is above 100 µM. For the same compound, in data set [2], the “Inhibition of dengue virus (in words)” value is “weak dengue-inhibitory activity”; the “SI (Selectivity Index, CC50/EC50)” value is recorded as above 3; the EC50 is 37 ± 22 µM.

Consider `NC(=O)c1csc([C@@H]2O[C@H](CO)[C@@H](O)[C@H]2O)n1` [Tiazofurin], for which, in data set [1], the “Inhibition of chikungunya virus (in words)” value is recorded as “ineffective” and the EC50 was above 100 µM. Also, in data set [2], the “Inhibition of dengue virus (in words)” value was “ineffective” and the EC50 was above 100 µM. Moreover, the “Inhibition of Junin virus (in words)” value in data set [3] was “ineffective”.

`NC(=O)c1ncn([C@@H]2O[C@H](CO)[C@@H](O)[C@H]2O)n1` [Ribavirin, 1-beta-D-ribofuranosyl-1,2,4-triazole-3-carboxamide]: the EC50 in data set [1] is above 100 µM. Moreover, the EC50 in data set [2] was above 100 µM. Also, in data set [3], the “Inhibition of Junin virus (in words)” value was “inhibited” and the “SI (Selectivity Index, CC50/EC50)” value is above 7.

Regarding `NC(=O)c1nc(F)c[nH]c1=O` [Favipiravir], the EC50 in data set [1] and in data set [2] was above 100 µM throughout. Moreover, the “Inhibition of Junin virus (in words)” value in data set [3] is given as “inhibited”. Besides, the “SI (Selectivity Index, CC50/EC50)” value in data set [3] is listed as above 23.

In the case of `C#Cc1c(C(N)=O)ncn1[C@@H]1O[C@H](CO)[C@@H](O)[C@H]1O` [EICAR, 5-ethynyl-1-beta-D-ribofuranosylimidazole-4-carboxamide], in data set [1], the “Inhibition of chikungunya virus (in words)” value is given as “inhibited”; the “SI (Selectivity Index, CC50/EC50)” value was above 10; the EC50 was determined as 10.3 ± 13 µM. In data set [2], the “SI (Selectivity Index, CC50/EC50)” value is above 8 and the EC50 came to 13.3 ± 22.1 µM. Besides, in data set [3], the “Inhibition of Junin virus (in words)” value is on record as “inhibited” and the “SI (Selectivity Index, CC50/EC50)” value is above 52. In addition, in data set [4] (4 days, N=3), the “Mean 50% cytotoxic concentration ± SD, ALB-Abs” value was 4.9 ± 1.4 µM and 3.9 ± 1.3 µM; the “Mean 50% cytotoxic concentration ± SD, ALB-Fluor” value was 9.5 ± 4.2 µM and 8.2 ± 2.2 µM; the “Mean 50% cytotoxic concentration ± SD, Neutral Red” value worked out at 2.9 ± 1.0 µM; the “Mean 50% cytotoxic concentration ± SD, Viral ToxGlo” value was 2.7 ± 1.4 µM. The “Mean 50% cytotoxic concentration ± SD, WST-1” value in data set [4] (4 days, N=3) is 2.8 ± 1.1 µM and 3.9 ± 1.3 µM. This compound came in with a CC50 in data set [5] (CC50, range over the dyes) of 1.5 to 8.9 µM.

Consider `COc1c(C)c2c(c(O)c1C/C=C(\C)CCC(=O)O)C(=O)OC2` [Mycophenolic acid, mycophenolic acid], for which, in data set [1], the “Inhibition of chikungunya virus (in words)” value was “inhibited”; the “SI (Selectivity Index, CC50/EC50)” value is reported as above 61; the EC50 is 1.6 ± 1.7 µM. Also, in data set [2], the “SI (Selectivity Index, CC50/EC50)” value is above 22 and the EC50 stood at 4.5 ± 6.6 µM. In addition, in data set [3], the “Inhibition of Junin virus (in words)” value is “inhibited” and the “SI (Selectivity Index, CC50/EC50)” value is listed as above 100. Also, in data set [4] (4 days, N=3), the “Mean 50% cytotoxic concentration ± SD, ALB-Abs” value is 1.4 ± 0.3 µM and 1.2 ± 0.2 µM; the “Mean 50% cytotoxic concentration ± SD, ALB-Fluor” value was 1.9 ± 0.1 µM and 2.5 ± 0.5 µM; the “Mean 50% cytotoxic concentration ± SD, Neutral Red” value was found to be 0.8 ± 0.6 µM; the “Mean 50% cytotoxic concentration ± SD, Viral ToxGlo” value is 0.7 ± 0.2 µM. Also, the “Mean 50% cytotoxic concentration ± SD, WST-1” value in data set [4] (4 days, N=3) worked out at 0.5 ± 0.1 µM. The compound further came in with a CC50 in data set [5] (CC50, range over the dyes) of 0.8 to 2.5 µM.
